The record followed here is patent US9757350B2, “Small molecule inhibitors of replication protein A that also act synergistically with cisplatin” (Indiana University Research and Technology Corp., priority 2010, dated 2017).

Entries after “also recorded” stand apart in the source; their conditions may differ. Read-outs that look alike come from different tables or passages of the source.

Test [1] deals with T1, EcSSB (Escherichia coli, UniProt P0AGE0).
T1 construct: purchased Enzymatics, Beverly, Mass
T1 sequence (P0AGE0 2-178): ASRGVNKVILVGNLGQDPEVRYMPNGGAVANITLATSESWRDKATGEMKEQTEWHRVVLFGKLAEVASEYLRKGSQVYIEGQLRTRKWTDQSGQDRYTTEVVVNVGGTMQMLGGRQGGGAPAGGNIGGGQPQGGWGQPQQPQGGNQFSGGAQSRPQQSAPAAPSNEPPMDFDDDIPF
The experiment in a line: E. coli SSB DNA-binding EMSA. Particulars: 0-200 μM, pre-incubated with protein. The protocol: (§1) In order to study the specificity of the CheSS19, and MCI13E/F compounds, their effects on two ssDNA binding proteins which use OB-folds for recognition and binding of ssDNA, E. coli SSB (6) and the Schizosaccharomyces pombe Pot1(DBD) domain (11) were studied. The EcSSB protein is a non-sequence-specific ssDNA binding protein, whereas the SpPot1(DBD) protein is a telomere-specific, ssDNA binding protein. In these experiments, protein was pre-incubated with the SMIs, as was done for the RPA experiments, prior to addition of radiolabeled ssDNA to the reactions.
Referring now to FIG. 6B. CheSS19 titration in EcSSB DNA-binding reactions. CheSS19 (0, 25, 50, 100, and 200 μM) was pre-incubated with EcSSB and binding reactions were carried out. Referring now to FIG. 6C. Titration of MCI13E and MCI13F in EcSSB DNA-binding reactions. Concentrations of MCI13E/F used were: 0, 25, 50, 100, and 200 μM. In all panels, the ‘Free’ ssDNA is indicated with an arrow and the ‘Bound’ ssDNA is indicated by brackets. All reactions were performed in the same order and manner as the RPA binding reactions. EcSSB binding was unaffected by CheSS19 and the MCI13E and MCI13F compounds […].
EMSAs were performed similarly to those for the RPA constructs, with the following exceptions. Reactions contained 25 nM of 5′-[^32P]-labeled 3Pc3 ssDNA and 3.3 nM (assuming homotetramer formation) SSB protein (Enzymatics, Beverly, Mass.). Reactions (20 μL) were carried out in 20 mM HEPES, pH 7.5, 1 mM DTT, 0.01% NP-40, 100 mM NaCl, and resolved by 6% native polyacrylamide gel electrophoresis at 25 mA for 2 hours. Gels were dried and quantified via phosphorimager analysis and ImageQuant software (Molecular Dynamics).

Test [2] has as its target T2, SpPot1(DBD) (Schizosaccharomyces pombe, UniProt O13988).
T2 construct: the Schizosaccharomyces pombe Pot1(DBD) domain (11) were studied
T2 sequence (O13988 1-389 limits assumed): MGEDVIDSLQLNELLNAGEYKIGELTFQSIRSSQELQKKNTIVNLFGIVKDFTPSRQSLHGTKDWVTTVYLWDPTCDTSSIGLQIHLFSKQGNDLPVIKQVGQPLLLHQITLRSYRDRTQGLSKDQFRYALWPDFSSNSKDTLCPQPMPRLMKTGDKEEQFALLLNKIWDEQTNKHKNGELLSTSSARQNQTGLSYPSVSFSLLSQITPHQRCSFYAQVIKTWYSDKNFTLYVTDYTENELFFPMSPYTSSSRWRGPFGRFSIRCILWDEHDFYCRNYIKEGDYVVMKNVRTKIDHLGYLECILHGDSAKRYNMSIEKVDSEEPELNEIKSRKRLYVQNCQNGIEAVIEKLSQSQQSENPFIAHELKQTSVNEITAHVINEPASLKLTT
The experiment in a line: SpPot1(DBD) ssDNA binding. Particulars: protein pre-incubated with SMI. The protocol: as §1

Test [3] deals with H1299 cells. Nature of the test: CCK-8 cell viability assay, H1299. Type of test: cell-based. The protocol:
Referring now to FIG. 13A. Cell Viability and Apoptosis of Ovarian and p53 null Lung Cancer Cell Lines. A) Ovarian cancer cell line A2780 and the p53 null lung cancer cell line, H1299, were treated with log dosing of MCI13E and viability analyzed via CCK-8 metabolic assay as described in Methods. Data is presented as cell survival which was determined as a percent of the untreated control cells and represents the average and standard deviation of triplicate experiments Referring now to FIG. 13B.
Ovarian cancer cell line, A2780, cells are difficult to use for crystal violet analysis due to their enhanced sensitivity to treatment. Therefore, the cell counting kit-8 (CCK) was used to determine the viability of A2780 cells in addition to the p53 null lung cancer cell line H1299, following a 24 hour treatment with log dosing of SMI. Cells were plated (1×10^5) in 24-well dishes and treated with inhibitor after 24 hours. After treatment media was aspirated and 1 ml of DMEM was added in addition to 100 μL of CCK-8 solution. Absorbance at 450 nm was measured over 4 hours in a SpectraMax M5 plate reader and values are presented as the percent untreated control at the two hour time point for three separate plate replicates each containing three assays per plate.

The subject of test [4] is H460 cells. Nature of the test: Cell cycle analysis by PI staining, H460. Type of test: cell-based. Particulars: H460, increasing doses. The protocol:
Referring now to FIG. 12A and FIG. 12B. Cell Cycle Analysis of Lung Cancer Cell Lines Following Treatment with MCI13E. A549. Referring now to FIG. 12C, and FIG. 12D. H460 were treated as indicated and analyzed for the cell cycle distribution using PI staining and flow cytometry. Quantification of data following 6 hours and 12 hour treatment with 10 and 20 μM MCI13E was performed for both A549 (FIG. 12E) and H460 (FIG. 12F) Data presented represent the averages of three replicate experiments.
(§2) Cell cycle analysis was also performed on the three lung cancer cell lines using PI staining to identify the potential arrest resulting from treatment with SMIs. Briefly, cells were plated in 6-well dishes (2×10^5 cells total) and treated for 6 or 12 hours with increasing concentration of inhibitor. Adherent and non-adherent cells were collected, washed twice with PBS containing 2% bovine serum albumin (BSA), resuspended in 70% cold EtOH and incubated overnight at −20° C. Cells were again collected and stained with PI (1 μg/mL) and RNaseA (25 μg/mL) for 30 min. at 37° C. followed by 1.5 hours at 4° C. in the dark. Flow cytometry was performed as above and data were analyzed on a histogram with events plotted against the FL2-A parameter. Cell cycle distribution was analyzed using the ModFit software and data presented represents three independent trials.

The test system of test [5] is H1299 cells. The experiment in a line: Cell cycle analysis by PI staining, H1299. In kind it is cell-based. Particulars: 6, 12 and 24 hours of treatment. The protocol: as §2, with “Briefly, cells were plated in 6-well dishes (2×10^5 cells total) and treated for 6 or 12 hours with increasing concentration of inhibitor.” left out
Where [6] appears, read: H1299, 24 hours after exposing the cells, read-out: IC50, cell viability.
Setting [7] is: H1299, read-out: IC50, cell viability (text to Table 3).

With `CC1(C)C2CCC1(C)C(OC(=O)CBr)C2` (racemic) [MCI13E, (+/−)-Isobornyl bromoacetate], in test [1], the “Effect on EcSSB ssDNA binding” value is recorded as “unaffected; also recorded: no significant inhibition”. Besides, the “Effect on SpPot1(DBD) ssDNA binding” value in test [2] is reported as “no significant inhibition”. For the same compound, the IC50 (as a rule, the concentration at which inhibition is half-maximal) in test [3] (H1299 (p53 null), 24 hours of treatment, CCK-8, read-out: IC50, cell viability) was about 4000 nM; in test [3] (setting [6]), 500 nM; in test [3] (setting [7]), about 500 nM. In addition, the results for the Cell cycle distribution entry in test [4] and in test [5] were “increase in the proportion of cells in S-phase” and “increased percentage of cells accumulated in S-phase”, respectively.

`CC1(C)C2CCC1(C)C(OC(=O)CI)C2` (racemic) [MCI13F, (+/−)-Isobornyl iodoacetate]: in test [1], the “Effect on EcSSB ssDNA binding” value is “unaffected; also recorded: no significant inhibition”. In test [2], the “Effect on SpPot1(DBD) ssDNA binding” value is “no significant inhibition”. Further, the IC50 in test [3] (setting [6]) was 500 nM; in test [3] (setting [7]) it was about 500 nM.
